Laboratory results taken from patent publication US9662328B2, “Targeting human thymidylate kinase induces DNA repair toxicity in malignant tumor cells” (NATIONAL YANG-MING UNIVERSITY, priority 2010, dated 2017).
Several values for one entry are separate records, joined by “and”; a condition that tells them apart may be missing. Equal entries are not always repeated.

Experiments:
hTMPK [1] = biological target: T1, hTMPK (Homo sapiens, UniProt P23919); test: In vitro inhibitory activity against human TMPK at 2 μM; format: biochemical; details: test compounds at 2 μM concentration
T1 sequence (P23919 1-212): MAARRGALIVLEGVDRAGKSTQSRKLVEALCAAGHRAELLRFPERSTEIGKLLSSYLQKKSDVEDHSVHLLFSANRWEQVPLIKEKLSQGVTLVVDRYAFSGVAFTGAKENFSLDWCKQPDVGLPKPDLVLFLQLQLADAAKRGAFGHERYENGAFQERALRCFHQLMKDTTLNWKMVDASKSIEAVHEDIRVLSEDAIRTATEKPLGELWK
Method: (§1) The TMPK reaction was started by adding purified hTMPK in 50 μl of TMPK assay buffer (100 mM Tris-HCl, pH 7.5, 100 mM KCl, 10 mM MgCl2, 50 μM ATP and 100 μM dTMP) in 96 wells plate at 25° C. for 10 min and terminated by adding 200 μl of DTNB (100 μM), followed by transferring 10 μl of reaction solution to a white 96-wellplate containing 90 μl of luciferase assay buffer (50 mM Glycine, 0.5 mM EDTA and 5 mM EDTA, pH 7.0, 0.1 μg of luciferase, 50 μM luciferin and 0.1% BSA). The luminescence was measured with a luminescence counter (Packard).
(§2) All reactions were performed in 96-well plates in an assay volume of 100 μl. The activity of hTMPK was measured at 25° C. using a modified NADH coupled colorimetric assay as described (Agarwal et al., 1978; Miyata et al., 2003; Ostermann et al., 2003), in which purified hTMPK was added to the buffer containing 100 mM Tris-HCl, pH 7.5, 100 mM KCl, 10 mM MgCl2, 0.5 mM phosphoenol pyruvate, 0.25 mM NADH, 5 units of lactate dehydrogenase, 4 units of pyruvate kinase, 1 mM ATP, and 200 μM dTMP. The change of NADH was measured by reading the absorbance at 340 nm. One unit of TMPK activity is defined as the conversion of […] of TMP to TDP per minute.
The in vitro inhibitory activities of test compounds (at 2 μM concentration) against human TMPK are shown in Table 3 and compared with that of YMU1 and YMU2.

[2] = tested on: Human RM osteosarcoma cells; test: Colony formation analysis of osteosarcoma cells; format: cell-based; details: for effect on suppressing colony formation, single agent: compound 5 μM or doxorubicin 20 nM alone, 2 days, replated for 1 week; for colony formation, combination with doxorubicin: compound 5 μM plus doxorubicin 20 nM
Method: FIG. 5. The effect of TMPK inhibitors alone or in combination with a chemotherapeutic agent on viability of osteosarcoma cells. (A) Human RM osteosarcoma cells (a representative bone cancer cells) were seeded at 2×10^4/35 mm dish and treated with Doxorubicin (20 nM), compound I-d-7 (5 μM), compound I-d-6 (5 μM) as indicated. After 2 days, medium was replaced with fresh medium without drug and cells were replated to a 24-well plate at 600 cells/well for 1 week for colony formation analysis.

hTMPK [3] = biological target: T1, hTMPK; test: IC50 determination by enzymatic assay; format: biochemical
Method: as §1, §2
In one embodiment, the IC50 values were determined by enzymatic assay.

SMILES	inhibition at 2 µM (hTMPK [1])	IC50 (hTMPK [3])	effect on suppressing colony formation, single agent [2]	colony formation, combination with doxorubicin [2]
CC(C)(C)OC(=O)N1CCN(C(=O)Cn2sc3ccc(F)cc3c2=O)CC1 [I-d-6, Tert-butyl 4-(2-(5-fluoro-3-oxobenzo[d]isothiazol-2(3H)-yl)acetyl)piperazine-1-carboxylate]	87 ± 5%	–	significant effect on suppressing colony formation	further decreased colony formation
COc1cccc2c1C(=O)c1c(O)c3c(c(O)c1C2=O)C[C@@](O)(C(=O)CO)C[C@@H]3O[C@H]1C[C@H](N)[C@H](O)[C@H](C)O1 [doxorubicin, reference compound]	–	–	no effect	–
O=C(NCC(=O)N1CCN(C(=O)Cn2sc3ncccc3c2=O)CC1)Nc1ccccc1 [I-b-1, 1-(2-Oxo-2-(4-(2-(3-oxoisothiazolo[5,4-b]pyridin-2(3H)-yl)acetyl)piperazin-1-yl)ethyl)-3-phenylurea]	54 ± 7%	1810 ± 280 nM	–	–
Cc1cc(C)c2c(=O)n(CC(=O)N3CCN(C(=O)Cn4sc5nc(C)cc(C)c5c4=O)CC3)sc2n1 [I-b-4, 1,4-Bis[(3-oxo-4,6-dimethylisothiazolo[5,4-b]pyridin-2-yl)acetyl]piperazine]	32 ± 2%	800 nM	–	–
Cc1cc(O)nc2sn(CC(=O)N3CCN(C(=O)OC(C)(C)C)CC3)c(=O)c12 [I-a-5, Tert-butyl 4-[(6-hydroxy-4-methyl-3-oxoisothiazolo[5,4-b]pyridin-2(3H)-2-yl)acetyl]piperazine-1-carboxylate]	93 ± 9%	500 nM	–	–
Cc1cc(C)c2c(=O)n(CC(=O)N3CCNCC3)sc2n1 [I-c-2, 4,6-Dimethyl-2-(2-oxo-2-(piperazin-1-yl)ethyl)isothiazolo[5,4-b]pyridin-3(2H)-one]	46 ± 2%	–	–	–
COc1ccc2c(=O)n(CC(=O)N3CCN(C(=O)OC(C)(C)C)CC3)sc2c1 [I-d-15, Tert-butyl 4-(2-(6-methoxy-3-oxobenzo[d]isothiazol-2(3H)-yl)acetyl)piperazine-1-carboxylate]	51 ± 9%	–	–	–
CC(C)(C)OC(=O)N1CCN(C(=O)Cn2sc3ncccc3c2=O)CC1 [I-a-1, Tert-butyl 4-(2-(3-oxoisothiazolo[5,4-b]pyridin-2(3H)-yl)acetyl)piperazine-1-carboxylate]	77 ± 4%	–	–	–
Cc1cc(N)nc2sn(CC(=O)N3CCN(C(=O)Cn4sc5nc(N)cc(C)c5c4=O)CC3)c(=O)c12 [I-b-6, 1,4-Bis[(6-amino-4-methyl-3-oxoisothiazolo[5,4-b]pyridin-2-yl)acetyl]piperazine]	48 ± 5%	1100 nM	–	–
O=C(CN=C=S)N1CCN(C(=O)Cn2sc3ccccc3c2=O)CC1 [I-e-4, 2-(2-(4-(2-Isothiocyanatoacetyl)piperazin-1-yl)-2-oxoethyl)benzo[d]isothiazol-3(2H)-one]	63 ± 10%	–	–	–
Cc1cc(C)c2c(=O)n(CC(=O)N3CCN(C(=O)CNC(=O)Nc4ccccc4)CC3)sc2n1 [I-b-2, 1-(2-(4-(2-(4,6-Dimethyl-3-oxoisothiazolo[5,4-b]pyridin-2(3H)-yl)acetyl)piperazin-1-yl)-2-oxoethyl)-3-phenylurea]	32 ± 2%	–	–	–
O=C(NCC(=O)N1CCN(C(=O)Cn2sc3ccccc3c2=O)CC1)Nc1ccccc1 [I-e-5, 1-(2-Oxo-2-(4-(2-(3-oxobenzo[d]isothiazol-2(3H)-yl)acetyl)piperazin-1-yl)ethyl)-3-phenylurea]	100 ± 7%	1290 nM and 1730 nM	–	–
COc1ccc(NC(=O)NCC(=O)N2CCN(C(=O)Cn3sc4ccccc4c3=O)CC2)cc1 [I-e-6, 1-(4-Methoxyphenyl)-3-(2-oxo-2-(4-(2-(3-oxobenzo[d]isothiazol-2(3H)-yl)acetyl)piperazin-1-yl)ethyl)urea]	55 ± 7%	–	–	–

More lines, main results first:

inhibition at 2 µM (hTMPK [1])	IC50 (hTMPK [3])	SMILES	effect on suppressing colony formation, single agent [2]	colony formation, combination with doxorubicin [2]
66 ± 7%	–	CC(C)(C)OC(=O)N1CCN(C(=O)Cn2sc3cc(F)ccc3c2=O)CC1 [I-d-7, Tert-butyl 4-(2-(6-fluoro-3-oxobenzo[d]isothiazol-2(3H)-yl)acetyl)piperazine-1-carboxylate]	significant effect on suppressing colony formation	further decreased colony formation
79 ± 5%	–	CCOC(=O)N1CCN(C(=O)Cn2sc3ccccc3c2=O)CC1 [I-d-1, Ethyl 4-(2-(3-oxobenzo[d]isothiazol-2(3H)-yl)acetyl)piperazine-1-carboxylate]	–	–
78 ± 7%	–	CCCCCCCCc1cn(-c2ccc3c(=O)n(CC(=O)N4CCN(C(=O)OC(C)(C)C)CC4)sc3c2)nn1 [I-d-18, Tert-butyl 4-(2-(6-(4-octyl-1H-1,2,3-triazol-1-yl)-3-oxobenzo[d]isothiazol-2(3H)-yl)acetyl)piperazine-1-carboxylate]	–	–
86 ± 6%	–	O=C(Cn1sc2cc(Br)ccc2c1=O)N1CCN(C(=O)Oc2ccc([N+](=O)[O-])cc2)CC1 [I-d-11, 4-Nitrophenyl 4-(2-(6-bromo-3-oxobenzo[d]isothiazol-2(3H)-yl)acetyl)piperazine-1-carboxylate]	–	–
66 ± 5%	–	CC(C)(C)OC(=O)N1CCN(C(=O)Cn2sc3cc(N=[N+]=[N-])ccc3c2=O)CC1 [I-d-14, tert-butyl 4-(2-(6-azido-3-oxobenzo[d]isothiazol-2(3H)-yl)acetyl)piperazine-1-carboxylate]	–	–
89 ± 6%	450 nM	O=C(Cn1sc2ccccc2c1=O)N1CCN(C(=O)Cn2sc3ccccc3c2=O)CC1 [I-e-8, 1,4-Bis[(3-oxo-benzo[d]isothiazol-2-yl)acetyl]piperazine]	–	–
84 ± 1%	–	CC(C)(C)OC(=O)N1CCN(C(=O)Cn2sc3cc(C(F)(F)F)ccc3c2=O)CC1 [I-d-12, Tert-butyl4-(2-(3-oxo-6-(trifluoromethyl)benzo[d]isothiazol-2(3H)-yl)acetyl)-piperazine-1-carboxylate]	–	–
56 ± 4%	–	CC(C)(C)OC(=O)N1CCN(C(=O)Cn2sc3cccc(F)c3c2=O)CC1 [I-d-5, Tert-butyl 4-(2-(4-fluoro-3-oxobenzo[d]isothiazol-2(3H)-yl)acetyl)piperazine-1-carboxylate]	–	–
38 ± 14%	–	O=C(Cn1sc2cc(Br)ccc2c1=O)N1CCNCC1 [I-f-2, 6-Bromo-2-(2-oxo-2-(piperazin-1-yl)ethyl)benzo[d]isothiazol-3(2H)-one]	–	–
54 ± 1%	–	O=C(Cn1sc2ccccc2c1=O)N1CCN(C(=O)OCc2ccccc2)CC1 [I-d-3, Benzyl 4-(2-(3-oxobenzo[d]isothiazol-2(3H)-yl)acetyl)piperazine-1-carboxylate]	–	–
56%	–	CC(C)(C)OC(=O)N1CCN(C(=O)Cn2sc3cc(Br)ccc3c2=O)CC1 [I-d-10, Tert-butyl 4-(2-(6-bromo-3-oxobenzo[d]isothiazol-2(3H)-yl)acetyl)piperazine-1-carboxylate]	–	–
